System: 485368-065-R4-J2-PDC spheroids with HUVEC/MSC, viability
Test: Anticancer human tumor 485368-065-R4-J2-PDC patient-derived pancreatic carcinoma cell line growth inhibition [CLK]
Details: for IC50: curve of first compound; for viability, T/C: stronger effect = lower value
Source text: A high-throughput screen of multi-cell type tumor spheroids was designed to identify active combinations of […] and targeted small molecules. Complex spheroids include a stromal component modeled by human endothelial cells (HUVEC) and fibroblasts modeled by human mesenchymal stem cells (MSCs). The concentration ranges selected for each drug and investigational agent were based upon clinically achievable concentrations if the clinical Cmax of the agent was known.
Compounds. The drugs and investigational agents: cirtuvivint (SM08502; NSC835563), CC-671 (NSC850746), vemurafenib (NSC761431), tapotoclax (NSC804041), sotorasib (NSC818433), adagrasib (NSC831453), MRTX-1133 (NSC836407), BAY2416964 (NSC825713), copanlisib (NSC816437), inavolisib (NSC800729), abemaciclib (NSC768073), osimertinib (NSC779217), entinostat (NSC756642), eltanexor (KPT-8602, NSC794443), venetoclax (NSC766270), ceralasertib (NSC777638), bortezomib (NSC756655), olaparib (NSC753686), talazoparib (NSC767125), alisertib (NSC759677), peposertib (NSC802822), gemcitabine (NSC613327), 5-fluorouracil (NSC19893), SN-38 (NSC673596), oxaliplatin (NSC266046), paclitaxel (NSC125973), and doxorubicin (NSC123127), were obtained from the National Cancer Institute (NCI) Developmental Therapeutics Program Chemical Repository. The FDA-approved anticancer drug set is available from the Developmental Therapeutics Program at https://dtp.cancer.gov/organization/dscb/obtaining/available plates.htm. […] The stock solutions were prepared in dimethyl sulfoxide (DMSO, Sigma-Aldrich, St. Louis, MO, cat. D2650), except for the platinum complexes which were prepared in saline (Quality Biological, Gaithersburg, MD, cat. 114-055-101), at 800-fold the tested concentration and stored at -70 degrees C prior to their use. All drugs and investigational agents were tested over a range starting from a high concentration at or near the clinical Cmax and decreasing in half-log increments. If the clinical Cmax for an agent had not been determined, the highest concentration tested was 10 microM.
Cell Culture. All cells were maintained in an incubator at 37 degrees C and 5% CO2 with 95% humidity. The PDC lines were cultured according to standard operating procedures established by the NCI PDMR. Briefly, all PDCs were thawed and cultured in Matrigel-coated flasks prepared with a working solution of 1X Ham's F-12 nutrient mix, without supplementation (Invitrogen, Waltham, MA, cat. 11765054), 100 U/mL penicillin-streptomycin (Invitrogen, cat. 15140122), and 2.5% Matrigel (Corning Inc., Corning, NY, cat. 354248) for the first three passages. The 947758-054-R-J2-PDC line was cultured in 6B/Colon 1A media, which includes advanced DMEM/F-12 (Thermo Fisher Scientific, cat. 12634028), 10 mM HEPES (Thermo Fisher Scientific, cat. 15630080), 1X GlutaMAX supplement (Thermo Fisher Scientific, cat. 35050061), 0.1 mg/mL primocin (InvivoGen, cat. ant-pm-2), 10% defined fetal bovine serum, heat inactivated (HyClone Laboratories Inc., cat. SH30070.03HI), 1.25 mM N-Acetyl-L-cysteine (Sigma-Aldrich, cat. A9165), 10 mM nicotinamide (Sigma-Aldrich, cat. N0636), 1X B-27 supplement (Thermo Fisher Scientific, cat. 17504044), 1X N-2 supplement (Thermo Fisher Scientific, cat. 17502048), and 10 microM Y-27632 dihydrochloride (Tocris Bioscience, cat. 1254). The 876862-298-R-J1-PDC was cultured in 6E media, which includes all 6B/Colon 1A media components plus 50% L-WRN conditioned media (ATCC, cat. CRL-3276), 50 ng/mL recombinant human EGF recombinant protein (hEGF; Thermo Fisher Scientific, cat. PHG0311), 10 ng/mL recombinant human fibroblast growth factor 10 (hGFG-10; PeproTech, cat. 100-26), 1 ng/mL recombinant human fibroblast growth factor 2 (hFGF-2; PeproTech, cat. 100-18B), and 1 µM prostaglandin E2 (PGE2; Tocris, cat. 2296). The 227483-062-R1-J1-PDC line was cultured in Panc media, containing all 6E components except hFGF-2, with the addition of 500 nM SB-431542 (Selleckchem, cat. S1067) and 10 nM gastrin (Tocris, cat. 3006). […]
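Further: spheroids exposed to compounds for seven days.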
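Wherever viability, T/C is given: 100% = DMSO vehicle control wells.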

COc1cccc2c1C(=O)c1c(O)c3c(c(O)c1C2=O)CC(O)(C(=O)CO)CC3OC1CC(N)C(O)C(C)O1 (configuration not stated) + CN1CCN(c2cc(C(=O)Nc3cc4cc(-c5cnn(C)c5)ccc4cn3)ccn2)CC1
IC50 (second compound 0.0316 µM): 340 nM | IC50 (second compound 0.1 µM): 215 nM | IC50 (second compound 0.316 µM): 86.9 nM | IC50 (second compound 1 µM): < 31.6 nM | IC50 (second compound 3.16 µM): < 31.6 nM | IC50 (second compound 10 µM): < 31.6 nM | viability, T/C (second compound 0.0316 µM, first compound 0.0316 µM): 97.5% | viability, T/C (second compound 0.0316 µM, first compound 0.1 µM): 91.9% | viability, T/C (second compound 0.0316 µM, first compound 0.316 µM): 51.1% | viability, T/C (second compound 0.0316 µM, first compound 1 µM): 22.8% | viability, T/C (second compound 0.0316 µM, first compound 3.16 µM): 6.06% | viability, T/C (second compound 0.0316 µM, first compound 10 µM): 20.1% | viability, T/C (second compound 0.1 µM, first compound 0.0316 µM): 95.9% | viability, T/C (second compound 0.1 µM, first compound 0.1 µM): 81.3% | viability, T/C (second compound 0.1 µM, first compound 0.316 µM): 34.5% | viability, T/C (second compound 0.1 µM, first compound 1 µM): 13.1% | viability, T/C (second compound 0.1 µM, first compound 3.16 µM): 5.58% | viability, T/C (second compound 0.1 µM, first compound 10 µM): 20.2% | viability, T/C (second compound 0.316 µM, first compound 0.0316 µM): 69.8% | viability, T/C (second compound 0.316 µM, first compound 0.1 µM): 47.2% | viability, T/C (second compound 0.316 µM, first compound 0.316 µM): 12.7% | viability, T/C (second compound 0.316 µM, first compound 1 µM): 6.03% | viability, T/C (second compound 0.316 µM, first compound 3.16 µM): 8.55% | viability, T/C (second compound 0.316 µM, first compound 10 µM): 26.6% | viability, T/C (second compound 1 µM, first compound 0.0316 µM): 0.88% | viability, T/C (second compound 1 µM, first compound 0.1 µM): 0.73% | viability, T/C (second compound 1 µM, first compound 0.316 µM): 1.56% | viability, T/C (second compound 1 µM, first compound 1 µM): 5.86% | viability, T/C (second compound 1 µM, first compound 3.16 µM): 12.6% | viability, T/C (second compound 1 µM, first compound 10 µM): 28.8% | viability, T/C (second compound 3.16 µM, first compound 0.0316 µM): 1.17% | viability, T/C (second compound 3.16 µM, first compound 0.1 µM): 1.22% | viability, T/C (second compound 3.16 µM, first compound 0.316 µM): 2.37% | viability, T/C (second compound 3.16 µM, first compound 1 µM): 6.61% | viability, T/C (second compound 3.16 µM, first compound 3.16 µM): 14.8% | viability, T/C (second compound 3.16 µM, first compound 10 µM): 30.9% | viability, T/C (second compound 10 µM, first compound 0.0316 µM): 1.73% | viability, T/C (second compound 10 µM, first compound 0.1 µM): 1.28% | viability, T/C (second compound 10 µM, first compound 0.316 µM): 2.28% | viability, T/C (second compound 10 µM, first compound 1 µM): 8.69% | viability, T/C (second compound 10 µM, first compound 3.16 µM): 14.6% | viability, T/C (second compound 10 µM, first compound 10 µM): 27.2%
